Laboratory results as given in paper PMC3933301 (Journal of medicinal chemistry, 2013).
Converted amounts (≈) assume the structure as drawn. “Also recorded” adds a separate entry of the source. Where two headings read alike, the source gives them in different places.

Columns and labels:
Cytotoxicity assay = assay type: cell-based; conditions: Cercopithecus aethiops (African green monkey)
Mtb FtsZ [1] = molecular target: T1, Mtb FtsZ (Mycobacterium tuberculosis, UniProt P9WN95); experiment: Mtb-FtsZ polymerization inhibitory assay; assay type: biochemical; conditions: FtsZ 15 µM, GTP 50 µM, 25 °C
Mtb [2] = conditions: standard acute infection model, immune incompetent GKO mice; cited from earlier work
non-replicating Mtb = conditions: grown under low oxygen conditions; cited from earlier work
Mtb H37Rv [3] = experiment: Microplate Alamar Blue Assay; assay type: cell-based, Mycobacterium tuberculosis
Mtb [4] = conditions: cited from earlier work
Mtb H37Rv [5] = conditions: early leads of previous study, Figure 1; cited from earlier work
Mtb FtsZ [6] = molecular target: T1, Mtb FtsZ; assay type: biochemical; conditions: for TEM: effect on GTP-initiated FtsZ polymerization: FtsZ 5 µM, GTP 25 µM

T1 sequence (P9WN95 whole entry): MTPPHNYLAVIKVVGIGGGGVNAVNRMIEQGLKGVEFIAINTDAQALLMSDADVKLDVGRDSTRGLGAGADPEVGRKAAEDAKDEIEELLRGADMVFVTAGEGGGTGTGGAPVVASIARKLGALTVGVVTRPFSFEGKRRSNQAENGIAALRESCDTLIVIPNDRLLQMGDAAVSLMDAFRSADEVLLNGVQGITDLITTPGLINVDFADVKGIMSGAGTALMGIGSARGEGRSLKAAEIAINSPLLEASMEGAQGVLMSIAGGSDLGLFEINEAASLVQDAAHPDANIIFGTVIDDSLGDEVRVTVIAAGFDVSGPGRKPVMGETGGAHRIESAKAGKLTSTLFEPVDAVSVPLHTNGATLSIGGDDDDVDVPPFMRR

O=C(Nc1cc2nc(C3CCCCC3)[nH]c2cc1N1CCCC1)OCC(F)(F)F [Compound 5o, 2-Cyclohexyl-5-trifluoroethoxycarbonylamino-6-prrolidinyl-1H-benzo[d]imidazole]
IC50 (Cytotoxicity assay): > 100 µg/mL

CN(C)c1cc2[nH]c(C3CCCCC3)nc2cc1NC(=O)OCC(F)(F)F [Compound 5p, 2-Cyclohexyl-5-trifluoroethoxycarbonylamino-6-N,N-dimethylamino-1H-benzo[d]imidazole]
IC50 (Cytotoxicity assay): > 100 µg/mL
Inhibition of Mtb FtsZ polymerization (light scattering) (Mtb FtsZ [1]): inhibit the assembly of Mtb FtsZ in a dose dependent manner; also recorded: effective dose-dependent inhibition

CCCCOC(=O)Nc1cc2nc(C3CCCCC3)[nH]c2cc1N(CC)CC [Compound 1]
Efficacy in vivo (Mtb [2]): good efficacy
Activity against non-replicating Mtb (non-replicating Mtb): active
MIC (Mtb H37Rv [3]; Mycobacterium tuberculosis, H37RV, read-out: Mtb H37Rv MIC): 0.63 µg/mL (≈ 1.63 µM)
Bactericidal activity (Mtb [4]): bactericidal
MIC of early lead compounds (Mtb H37Rv [5]): 0.63 µg/mL

CCc1ccc(C(=O)Nc2cc3nc(C4CCCCC4)[nH]c3cc2N(C)C)cc1 [Compound 7c-6, 2-Cyclohexyl-5-(4-ethylbenzamido)-6-N,N-dimethylamino-1H-benzo[d]imidazole]
Inhibition of Mtb FtsZ polymerization (light scattering) (Mtb FtsZ [1]): inhibit the assembly of Mtb FtsZ in a dose dependent manner; also recorded: effective dose-dependent inhibition

CCCCOC(=O)Nc1cc2nc(C3CCCCC3)[nH]c2cc1N(C)C [Compound 5f, 5-Butyloxycarbonylamino-2-cyclohexyl-6-N,N-dimethylamino-1H-benzo[d]imidazole]
Potency relative to 1 (Mtb H37Rv MIC) (Mtb H37Rv [3]): 11 times
TEM: effect on preformed FtsZ polymers (Mtb FtsZ [6]; 5f 40 µM or 80 µM added after polymerization with GTP 25 µM): capable of disrupting the formed FtsZ polymers and aggregates; also recorded: effectively disassembled
TEM: effect on GTP-initiated FtsZ polymerization (Mtb FtsZ [6]; 5f 40 µM): reduction in the density and population of FtsZ polymers, protofilaments and aggregates
TEM: effect on GTP-initiated FtsZ polymerization (Mtb FtsZ [6]; 5f 80 µM): more apparent
Inhibition of Mtb FtsZ polymerization (light scattering) (Mtb FtsZ [1]): inhibit the assembly of Mtb FtsZ in a dose dependent manner; also recorded: effective dose-dependent inhibition

CCCCOC(=O)Nc1cc2nc(C3CCCCC3)[nH]c2cc1N1CCCC1 [Compound 2]
Activity against non-replicating Mtb (non-replicating Mtb): active
Bactericidal activity (Mtb [4]): bactericidal

CCN(CC)c1cc2[nH]c(C3CCCCC3)nc2cc1NC(=O)OCC(F)(F)F [Compound 5n, 2-Cyclohexyl-6-N,N-diethylamino-5-trifluoroethoxycarbonylamino-1H-benzo[d]imidazole]
IC50 (Cytotoxicity assay): > 100 µg/mL
